Data: article PMC4022547 (Molecular Brain, 2014)

Key:
[1] = biological target: hα6(D199Y) + hβ4 nAChR (Homo sapiens, UniProt P30926+Q15825, D199Y); assay: Oocyte two-electrode voltage clamp; type: cell-based
Protocol: (§1) We planned to introduce identical amounts of cRNA, presumably producing equal amounts of each subunit protein, into oocytes largely due to lack of information about the levels of mRNA for each subunits that compose α6*-nAChRs in neurons or other cells. Concentrations of cRNAs for each nAChR α and β subunits (WT, mutant or variant) were adjusted to 500 ng μL^−1. We provisionally assumed that hα6 or its variants in association with hβ2 or hβ4 subunits would form complexes having 2:3 and/or 3:2 ratios of the indicated subunits and that oocytes also injected with WT or mutant form of β3 subunits (i.e., β3^V9’S) would express nAChR with 2:2:1 ratios of α:β:(β3 or β3^V9’S) subunits. For expression of binary nAChRs (i.e., two subunit containing nAChRs; α + β but not β3) cRNA mixtures were prepared by mixing 1 μL of cRNA for each subunit and an additional μL of RNAse free water (i.e., total volume 3 μL). Similarly for expression of ternary nAChRs [i.e., three subunit containing nAChRs; (α + β) + (β3 or β3^V9’S)] cRNA mixtures were prepared by mixing 1 μL of cRNA for each subunit. Several preparations of each mixture were prepared and stored at −80°C until further use. Injection of 138 nL of cRNA, out of 3 μL cRNA mixtures, into each oocyte would deliver ~23 ng of cRNA for each subunit whether binary or ternary nAChRs are expressed.
(§2) Two to 5 days after injection, oocytes were placed in a small-volume chamber and continuously perfused with OR2. The chamber was grounded through an agarose bridge. The oocytes were voltage-clamped at −70 mV (unless otherwise noted) to measure agonist or antagonist induced currents using Axoclamp 900A and pClamp 10.2 software (Molecular Devices, Sunnyvale, CA). The current signal was low-pass filtered at 10 Hz with the built-in low-pass Bessel filter in the Axoclamp 900A and digitized at 20 Hz with Axon Digidata1440A and pClamp10. […] Drugs (agonists and antagonists) were prepared daily in OR2. Drug was applied using a Valvelink 8.2 perfusion system (Automate scientific, Berkeley, CA). […] Then for the purpose of comparison electrophysiological recordings were performed in a given day in a given batch of oocytes following the same order of injections. […] All hβ4*-nAChR recordings were done in similar conditions to facilitate comparisons between hα6hβ4- and hα6hβ4hβ3-nAChRs. All electrophysiological measurements were conducted or checked in at least two batches of oocytes.
(§3) Raw data was collected and processed in part using pClamp 10.2 (Molecular Devices, Sunnyvale, CA), Origin 7.5 (OriginLab Corporation, Northampton, MA) and a spreadsheet (Excel; Microsoft, Bellevue, WA). Peak current amplitudes (Imax) are reported as mean ± SEM (for results from at least three oocytes, i.e., n = 3).

[2] = biological target: T1, hα6(R87C) + WT hβ2 + hβ3^V9’S nAChR (Homo sapiens, UniProt P17787+Q15825, R87C); assay: Oocyte two-electrode voltage clamp; type: cell-based
T1 construct: Full length capped mRNA (i.e., cRNA) was transcribed from linearized plasmids; expressed in transfected cells; host or cells: Xenopus laevis oocytes injected with cRNA
Protocol: as §1, §2, §3

[3] = biological target: hα6(D199Y) + hβ4 + hβ3 nAChR (Homo sapiens, UniProt P30926+Q15825, D199Y); assay: Oocyte two-electrode voltage clamp; type: cell-based
Sequence of hα6(D199Y) + hβ4 + hβ3 nAChR (Q15825 26-494 D199Y): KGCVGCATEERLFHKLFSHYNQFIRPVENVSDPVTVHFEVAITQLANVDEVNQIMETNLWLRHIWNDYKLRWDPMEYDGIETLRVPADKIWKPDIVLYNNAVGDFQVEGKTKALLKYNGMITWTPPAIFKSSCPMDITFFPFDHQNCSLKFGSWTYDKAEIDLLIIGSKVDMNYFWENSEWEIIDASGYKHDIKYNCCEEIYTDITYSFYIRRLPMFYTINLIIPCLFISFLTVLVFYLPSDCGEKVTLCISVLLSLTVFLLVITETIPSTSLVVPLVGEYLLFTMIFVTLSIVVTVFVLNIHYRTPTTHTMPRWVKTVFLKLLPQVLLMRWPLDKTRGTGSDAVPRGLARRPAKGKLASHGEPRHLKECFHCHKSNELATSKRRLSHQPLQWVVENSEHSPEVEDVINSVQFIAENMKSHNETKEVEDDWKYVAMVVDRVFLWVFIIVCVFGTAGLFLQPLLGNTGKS
Sequence of hα6(D199Y) + hβ4 + hβ3 nAChR (P30926 22-498): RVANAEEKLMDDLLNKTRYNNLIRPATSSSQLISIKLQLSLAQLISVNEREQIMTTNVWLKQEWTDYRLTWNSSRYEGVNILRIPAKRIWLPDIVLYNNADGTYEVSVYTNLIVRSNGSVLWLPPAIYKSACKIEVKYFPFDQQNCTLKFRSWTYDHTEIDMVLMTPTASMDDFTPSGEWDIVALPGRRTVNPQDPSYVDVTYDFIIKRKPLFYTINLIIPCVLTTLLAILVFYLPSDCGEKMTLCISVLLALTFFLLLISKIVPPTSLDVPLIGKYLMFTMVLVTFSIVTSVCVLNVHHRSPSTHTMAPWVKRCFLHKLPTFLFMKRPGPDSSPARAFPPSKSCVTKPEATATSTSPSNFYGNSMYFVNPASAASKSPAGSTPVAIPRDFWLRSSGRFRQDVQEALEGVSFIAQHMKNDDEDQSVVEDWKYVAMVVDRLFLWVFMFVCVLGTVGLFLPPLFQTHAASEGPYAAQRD
Sequence of hα6(D199Y) + hβ4 + hβ3 nAChR (Q05901 25-458 partner limits assumed): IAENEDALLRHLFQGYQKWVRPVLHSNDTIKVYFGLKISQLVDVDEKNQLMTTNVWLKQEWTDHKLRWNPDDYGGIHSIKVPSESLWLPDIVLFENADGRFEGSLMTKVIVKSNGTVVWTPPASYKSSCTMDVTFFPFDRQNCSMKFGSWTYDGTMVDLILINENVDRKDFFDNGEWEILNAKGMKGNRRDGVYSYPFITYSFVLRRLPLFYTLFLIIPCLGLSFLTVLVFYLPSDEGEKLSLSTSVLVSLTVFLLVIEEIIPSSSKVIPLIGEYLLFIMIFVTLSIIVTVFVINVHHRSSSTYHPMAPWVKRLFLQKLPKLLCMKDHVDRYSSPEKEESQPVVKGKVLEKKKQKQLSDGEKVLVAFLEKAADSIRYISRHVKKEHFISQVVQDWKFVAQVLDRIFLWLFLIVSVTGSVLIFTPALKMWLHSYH
Protocol: as §1, §2, §3

[4] = biological target: hα6(S233C) + hβ4 + hβ3 nAChR (Homo sapiens, UniProt P30926+Q15825, S233C); assay: Oocyte two-electrode voltage clamp; type: cell-based
Sequence of hα6(S233C) + hβ4 + hβ3 nAChR (Q15825 26-494 S233C): as the sequence (Q15825 26-494 D199Y) above, with Y174D, S208C counted along it
Sequence of hα6(S233C) + hβ4 + hβ3 nAChR (P30926 22-498): as the sequence (P30926 22-498) above
Sequence of hα6(S233C) + hβ4 + hβ3 nAChR (Q05901 25-458 partner limits assumed): as the sequence (Q05901 25-458 partner limits assumed) above
Protocol: as §1, §2, §3

[5] = biological target: T2, hα6(R96H) + hβ4 nAChR (Homo sapiens, UniProt P30926+Q15825, R96H); assay: Oocyte two-electrode voltage clamp; type: cell-based
T2 construct: Full length capped mRNA (i.e., cRNA) was transcribed from linearized plasmids; expressed in transfected cells; host or cells: Xenopus laevis oocytes injected with cRNA
T2 sequence (Q15825 26-494 R96H): as the sequence (Q15825 26-494 D199Y) above, with R71H, Y174D counted along it
T2 sequence (P30926 22-498, stated change not applied): as the sequence (P30926 22-498) above
Protocol: as §1, §2, §3

[6] = biological target: hα6 + hβ4 + hβ3 nAChR (Homo sapiens, UniProt P30926+Q15825); parameters: method as in PMID 11044728; conditions: ref [29]; cited from earlier work
[7] = biological target: hα6 + hβ4 nAChR (Homo sapiens, UniProt P30926+Q15825); parameters: method as in Kuryatov et al. (2000) [29]; conditions: ref Kuryatov et al. (2000) [29]; cited from earlier work
[8] = biological target: hα6^S156Rhβ4hβ3^V9’S-nAChR (Homo sapiens, UniProt P30926+Q15825, S156R); conditions: nicotine (100 μM), ACh (100 μM) or atropine (1000 μM)
Protocol: as §1, §2

[9] = biological target: hα6^R87C + hβ4 + hβ3^V9’S nAChR (Homo sapiens, UniProt P30926+Q15825, R87C); conditions: nicotine (100 μM), ACh (100 μM) or atropine (1000 μM)
Protocol: as §1, §2

[10] = biological target: hα6^N171Khβ4β3^V9’S-nAChR (Homo sapiens, UniProt P30926+Q15825, N171K); conditions: nicotine (100 μM), ACh (100 μM) or atropine (1000 μM)
Protocol: as §1, §2

[11] = biological target: hα6^D57Nhβ4hβ3^V9’S-nAChR (Homo sapiens, UniProt P30926+Q15825, D57N); conditions: nicotine (100 μM), ACh (100 μM) or atropine (1000 μM)
Protocol: as §1, §2

[12] = biological target: hα6hβ4hβ3^V9’S-nAChR (Homo sapiens, UniProt P30926+Q05901+Q15825, V273S); conditions: nicotine (100 μM), ACh (100 μM) or atropine (1000 μM); spontaneously opening channels
Protocol: as §1, §2

[13] = 100 μM nicotine, oocytes clamped at −70 mV

Sequence of hα6(D199Y) + hβ4 nAChR (Q15825 26-494 D199Y): as the sequence (Q15825 26-494 D199Y) above
Sequence of hα6(D199Y) + hβ4 nAChR (P30926 22-498): as the sequence (P30926 22-498) above

For `CN1CCC[C@H]1c1cccnc1` [nicotine, L-nicotine], the EC50 [1] was 4.4 µM, the “Imax conc. (concentration where maximal peak current achieved)” value [1] was 100 µM and the “nH ± SE (Hill coefficient)” value [1] was 1.1±0.26. The “peak current (Imax, mean ± SE)” value [1, 13] was 90 ± 11 nA, the current response ([2]; ACh, nicotine or atropine, hβ2 type not specified) was “not obtained” and the current response ([2]; nicotine) was “did not yield current responses”. For the same compound, the EC50 [3] was 11 µM, the “Imax conc. (concentration where maximal peak current achieved)” value [3] was 100 µM and the “nH ± SE (Hill coefficient)” value [3] was 1.5±0.42. The “Mean (±SE) peak current response” value [3, 13] was 276 ± 47 nA, the EC50 [4] was 6.9 µM and the “Imax conc. (concentration where maximal peak current achieved)” value [4] was 100 µM. The “nH ± SE (Hill coefficient)” value [4] was 1.4±0.12, the “Mean (±SE) peak current response” value [4, 13] was 536 ± 66 nA and the “Imax conc. (concentration where maximal peak current achieved)” value [5] was 100 µM. For the same compound, the “peak current (Imax, mean ± SE)” value [5, 13] was 73 ± 10 nA, the EC50 [6] was 10 ± 3 µM and the EC50 [7] was 7.1 µM. The “current response (direction)” value [8] was “outward reversible currents”, the current response [9] was “not obtained” and the “current response (direction)” value [10] was “outward reversible currents”. For the same compound, the “current response (direction)” value [11] was “outward reversible currents” and the “current response (direction)” value [12] was “robust inward current”.
